Measurements published in paper PMC8885657, “HPV infection alters vaginal microbiome through down-regulating host mucosal innate peptides used by Lactobacilli as amino acid sources” (Nature Communications, 2022).
Values joined by “and” are separate entries in the source; they are usually repeats but may differ in a detail not shown here. Identical values can stand only once. Where no end group is shown, it is not given here.

Key:
E-cadherin (CDH1) = test: Reactivation of hypermethylated CDH1 gene (Western blot); assay type: cell-based, human; details: 5 µM
Protocol: Immortalized keratinocytes (1.5 × 10^5 cells per well of a six-well plate) were transfected with ON-TARGETplus SMARTpool siRNAs targeting p65, β-catenin or c-Myc (Dharmacon, Lafayette, CO, USA) using Oligofectamine Transfection Reagent (Invitrogen). Oligos targeting the firefly luciferase gene (siGL2) were used as control. For each experiment, siRNA (40 nM) and 6 µl of Oligofectamine were diluted in 1 ml of Optimem (Invitrogen). The cells were incubated with the mixture for 4 h at 37 °C. Twenty-four hours after transfection, cells were either harvested or stimulated with LPS (2 µg/ml) or TNFα (20 ng/ml) and experiments were performed. For the chemical inhibition of NF-kB or c-Myc, BAY 11-7082 (5 µM, Sigma Aldrich) or 10058-F4 (40 µM, Selleckchem, Houston, TX, USA) was added to cell cultures before RNA expression analyses. […]
After extraction in 1% SDS buffer (total extraction) containing protease and phosphatase inhibitors (Roche) and quantification (BCA protein assay kit; Pierce, Rockford, IL, USA), twenty micrograms of proteins were separated on 10% SDS-PAGE and transferred to PVDF membranes (Roche). […] The protein bands were detected using an enhanced chemiluminescence system (Westar ECL-Sun, Cyanagen, Bologna, Italy) and finally quantified by densitometry using ImageJ software. […]

L. jensenii [1] = test: Internalization of fluorescent-labeled peptides in bacteria (flow cytometry); assay type: cell-based, Lactobacillus jensenii; details: Atto 488-labeled peptide 5 µg/ml, 5 × 10^4 CFU/ml, 10 mM SPB, 1 h30, 37 °C, trypan blue, n = 3
Protocol: (§1) To determine the incorporation of selected peptides (or their hydrolyzed products) within the cytoplasm of several bacterial species, free amine groups (lysine residues and N-terminus) were first conjugated with Atto 488 dye according to manufacturer’s recommendations (Atto 488 protein labeling kit, Sigma Aldrich). A total 5 × 10^4 colony-forming unit (CFU)/ml were then mixed with fluorescent labeled peptides (5 µg/ml) in 10 mM sodium phosphate buffer (final volume 100 µl) and incubated for 1 h30 at 37 °C before being analyzed by flow cytometry. Where indicated, trypan blue was added before the analysis in order to exclusively consider cytoplasmic fluorescence.

L. iners [2] = test: ATP measurement in bacteria (BacTiter-Glo); assay type: cell-based, Lactobacillus iners; details: 6 × 10^7 CFU/ml, peptide 5 µg, 10 mM SPB, 6 h, 37 °C; luminescence; n = 5; statistical significance not reached in all conditions
Protocol: (§2) ATP level in bacteria was determined using the BacTiter-Glo Microbial Cell Viability Assay (Promega) according to manufacturer’s recommendations. For each bacterial species, 6 ×10^7 CFU/ml were mixed with elafin or S100A7 (5 µg) in 10 mM SPB and incubated 6 h at 37 °C. One hundred µl of bacterial-peptide solution were then mixed with an equal volume of BacTiter-Glo reagent and incubated for 5 min at room temperature. Luminescence was measured using a Centro LB960 microplate luminometer (Berthold Technologies, Bad Wildbad, Germany).

L. jensenii [3] = test: ATP measurement in bacteria (BacTiter-Glo); assay type: cell-based, Lactobacillus jensenii; details: 6 × 10^7 CFU/ml, peptide 5 µg, 10 mM SPB, 6 h, 37 °C; luminescence; n = 5; statistical significance not reached in all conditions
Protocol: as §2

[4] = test system: Lactobacillus jensenii LMG 6414; test: Antimicrobial assay (surviving colonies, CFU count); assay type: cell-based; details: for Bacterial survival (surviving colonies): Fig 5E, L. jensenii, individual replicates; for Bacterial survival (surviving colonies) / positive effect on survival in acidic conditions: pH 5.8; for positive effect on survival in potassium phosphate buffer: KPB pH 7.4, 10 mM; for positive effect on survival in potassium phosphate buffer / positive effect on survival in acidic conditions / effect on bacterial growth/survival (percentage of surviving colonies): 6 h; for positive effect on survival in potassium phosphate buffer / positive effect on survival in acidic conditions / antimicrobial/protective activity in reducing environment: n = 4; for effect on bacterial growth/survival (percentage of surviving colonies): peptide 1–10 µg/ml, 5 × 10^4 CFU/ml, 10 mM sodium phosphate buffer, 37 °C, plated on Columbia Blood agar, n = 3; for antimicrobial/protective activity in reducing environment: peptides pre-incubated with 2 mM DTT 30 min 37 °C, 6 h with bacteria; for incubation time at which a significant increased percentage of surviving colonies was detected: starvation assay (no nutrients), 45 min to 9 h, n = 8
Protocol: (§3) Bacterial strains Lactobacillus crispatus DSM 20356, Lactobacillus iners CIP 105923 and Garnerella vaginalis CCUG 43336 were kindly provided by the Department of Clinical Microbiology at University Hospital Center of Liege. Lactobacillus jensenii LMG 6414 was obtained from BCCM/LMG Bacteria Collection (University of Gent, Belgium). Log-phase bacteria were grown on Columbia agar with 5% sheep blood (Becton Dickinson, Franklin Lakes, NJ, USA) at 37 °C in a humidified CO2 atmosphere (Lactobacilli) or in anaerobic jars (G. vaginalis). To analyze the antimicrobial effect of innate peptides expressed by vaginal/cervical mucosa, 5 × 10^4 colony-forming unit (CFU)/ml were mixed with different peptides (concentration range: 1–10 µg/ml) in 10 mM sodium phosphate buffer (SPB) (final volume 100 µl) and incubated for 45 min to 9 h at 37 °C. Where indicated, the peptides were incubated with 2 mM dithiothreitol (DTT) (Invitrogen, Carlsbad, CA, USA) for 30 min at 37 °C before adding the bacteria. In indicated experiments, incubation was carried out in potassium phosphate buffer (KPB) (pH: 7.4, 10 mM). The following peptides were tested: HβD1 (PeptaNova, Sandhausen, Germany), HβD2 (PeptaNova), HβD3 (PeptaNova), HβD4 (PeptaNova), HD-5 (PeptaNova), HD-6 (PeptaNova), elafin (PeptaNova), S100A7 (Abnova, Taipei City, Taiwan) and SLPI (R&D Systems, Minneapolis, MI, USA). Bacterial suspensions were then plated on Columbia Blood agar plates for 24–48 h to determine CFU. High-resolution images for each condition were taken. Colony detection and counts were finally performed using ImageJ software (NIH, Bethesda, MD, USA) and verified by manual counting.

[5] = test system: Lactobacillus iners CIP 105923; test: as above; assay type: cell-based; details: for Bacterial survival (surviving colonies): Fig 5E, L. iners, individual replicates; for Bacterial survival (surviving colonies) / positive effect on survival in acidic conditions: pH 5.8; for positive effect on survival in potassium phosphate buffer: KPB pH 7.4, 10 mM; for positive effect on survival in potassium phosphate buffer / positive effect on survival in acidic conditions / effect on bacterial growth/survival (percentage of surviving colonies): 6 h; for positive effect on survival in potassium phosphate buffer / positive effect on survival in acidic conditions: n = 4; for effect on bacterial growth/survival (percentage of surviving colonies): peptide 1–10 µg/ml, 5 × 10^4 CFU/ml, 10 mM sodium phosphate buffer, 37 °C, plated on Columbia Blood agar, n = 3; for antimicrobial/protective activity in reducing environment: peptides pre-incubated with 2 mM DTT 30 min 37 °C, 6 h with bacteria, n = 5; for incubation time at which a significant increased percentage of surviving colonies was detected: starvation assay (no nutrients), n = 6
Protocol: as §3

[6] = test system: Lactobacillus crispatus DSM 20356; test: as above; assay type: cell-based; details: for Bacterial survival (surviving colonies): Fig 5E, L. crispatus, individual replicates; for Bacterial survival (surviving colonies) / positive effect on survival in acidic conditions: pH 5.8; for positive effect on survival in potassium phosphate buffer: KPB pH 7.4, 10 mM; for positive effect on survival in potassium phosphate buffer / positive effect on survival in acidic conditions / effect on bacterial growth/survival (percentage of surviving colonies): 6 h; for positive effect on survival in potassium phosphate buffer / positive effect on survival in acidic conditions: n = 4; for effect on bacterial growth/survival (percentage of surviving colonies): peptide 1–10 µg/ml, 5 × 10^4 CFU/ml, 10 mM sodium phosphate buffer, 37 °C, plated on Columbia Blood agar, n = 3; for antimicrobial/protective activity in reducing environment: peptides pre-incubated with 2 mM DTT 30 min 37 °C, 6 h with bacteria, n = 6; for incubation time at which a significant increased percentage of surviving colonies was detected: starvation assay (no nutrients), 45 min to 9 h, n = 8
Protocol: as §3

L. crispatus [7] = test: ATP measurement in bacteria (BacTiter-Glo); assay type: cell-based, Lactobacillus crispatus; details: 6 × 10^7 CFU/ml, peptide 5 µg, 10 mM SPB, 6 h, 37 °C; luminescence; n = 5; statistical significance not reached in all conditions
Protocol: as §2

L. crispatus [8] = test: Internalization of fluorescent-labeled peptides in bacteria (flow cytometry); assay type: cell-based, Lactobacillus crispatus; details: Atto 488-labeled peptide 5 µg/ml, 5 × 10^4 CFU/ml, 10 mM SPB, 1 h30, 37 °C, trypan blue, n = 3
Protocol: as §1

L. iners [9] = test: as above; assay type: cell-based, Lactobacillus iners; details: Atto 488-labeled peptide 5 µg/ml, 5 × 10^4 CFU/ml, 10 mM SPB, 1 h30, 37 °C, trypan blue, n = 3
Protocol: as §1

Molecule | internalization of fluorescent-labeled peptide (or hydrolyzed products) within the cytoplasm of bacteria (L. jensenii [1]) | ATP production (L. iners [2]) | ATP production (L. jensenii [3]) | Bacterial survival (surviving colonies) [4] | positive effect on survival in potassium phosphate buffer [4] | positive effect on survival in acidic conditions [4] | effect on bacterial growth/survival (percentage of surviving colonies) [4] | antimicrobial/protective activity in reducing environment [4] | incubation time at which a significant increased percentage of surviving colonies was detected [4] | Bacterial survival (surviving colonies) [5] | positive effect on survival in potassium phosphate buffer [5] | positive effect on survival in acidic conditions [5] | effect on bacterial growth/survival (percentage of surviving colonies) [5] | antimicrobial/protective activity in reducing environment [5] | incubation time at which a significant increased percentage of surviving colonies was detected [5] | Bacterial survival (surviving colonies) [6] | positive effect on survival in potassium phosphate buffer [6] | positive effect on survival in acidic conditions [6] | effect on bacterial growth/survival (percentage of surviving colonies) [6] | antimicrobial/protective activity in reducing environment [6] | further results
Nc1ncn([C@H]2C[C@H](O)[C@@H](CO)O2)c(=O)n1 [5-aza-deoxycytidine] | – | – | – | – | – | – | – | – | – | – | – | – | – | – | – | – | – | – | – | – | CDH1 (E-cadherin) expression, Western blot (E-cadherin (CDH1)): reactivation of silenced CDH1 gene
elafin: "defensin-like" innate peptide constitutively secreted by cervical/vaginal mucosa (PeptaNova) (AQEPVKGPVSTKPGSCPIILIRCAMLNPPNRCLKDTDCPGIKKCCEGSCGMACFVPQ; not fully specified; ends and bridges not checked; UniProt P19957 61-117, looked up) | internalization | increase of ATP production | increase of ATP production | 223.81 and 226.19 and 261.90 and 150.02 | did not modify the positive effect | did not modify the positive effect | do not display any antimicrobial activities | significant protective effect | only detected after 3 or 6 h | 148.35 and 185.56 and 157.03 and 142.84 | did not modify the positive effect | did not modify the positive effect | do not display any antimicrobial activities | significant protective effect | only detected after 3 or 6 h | 124.66 and 146.1 and 157.25 and 154.15 | did not modify the positive effect | did not modify the positive effect | do not display any antimicrobial activities | significant protective effect | incubation time at which a significant increased percentage of surviving colonies was detected [6]: only detected after 3 or 6 h; ATP production (L. crispatus [7]): increase of ATP production; internalization of fluorescent-labeled peptide (or hydrolyzed products) within the cytoplasm of bacteria (L. crispatus [8]): internalization; internalization of fluorescent-labeled peptide (or hydrolyzed products) within the cytoplasm of bacteria (L. iners [9]): internalization
S100A7: "defensin-like" innate peptide constitutively secreted by cervical/vaginal mucosa (Abnova) (protein, UniProt P31151 2-101, looked up) Protein S100-A7: SNTQAERSIIGMIDMFHKYTRRDDKIEKPSLLTMMKENFPNFLSACDKKGTNYLADVFEKKDKNEDKKIDFSEFLSLLGDIATDYHKQSHGAAPCSGGSQ | internalization | increase of ATP production | increase of ATP production | 419.05 and 164.29 and 304.76 and 269.05 | did not modify the positive effect | did not modify the positive effect | do not display any antimicrobial activities | significant protective effect | only detected after 3 or 6 h | 138.53 and 246.67 and 123.50 and 159.47 | did not modify the positive effect | did not modify the positive effect | do not display any antimicrobial activities | significant protective effect | only detected after 3 or 6 h | 127.74 and 112.92 and 139.54 and 168.69 | did not modify the positive effect | did not modify the positive effect | do not display any antimicrobial activities | significant protective effect | incubation time at which a significant increased percentage of surviving colonies was detected [6]: only detected after 3 or 6 h; ATP production (L. crispatus [7]): increase of ATP production; internalization of fluorescent-labeled peptide (or hydrolyzed products) within the cytoplasm of bacteria (L. crispatus [8]): internalization; internalization of fluorescent-labeled peptide (or hydrolyzed products) within the cytoplasm of bacteria (L. iners [9]): internalization
